Earlier results as cited in patent publication US20050152951A1, “Liquid, eye-instillable preparations comprising sodium hyaluronate” (priority 2001, published 2005).

Settings: water retained by 1 gram of SH

Sodium hyaluronate [SH]
water retention: up to 6 litres
